Measured values: paper PMC11339798, “Dual inhibitors of Pseudomonas aeruginosa virulence factors LecA and LasB” (Chemical Science, 2024)

What was measured:
[1] = system: LecA-FITC binding to human A549 cells; assay: Inhibition of LecA-FITC adhesion to A549 cells by fluorescence microscopy; format: cell-based; settings: 100 μM compound, 10 μM LecA-FITC, 4 °C, 30 min
Method: LecA-mediated cell adhesion is crucial for the initial infection and host-cell invasion of P. aeruginosa. Therefore, compounds 1 and 2, a combination of 1+2 and the dual inhibitor 12 were assessed for their ability to inhibit LecA-binding to human A549 cells. 10 μM of LecA-FITC and different concentrations of the respective compounds were incubated at 4 °C for 30 min with confluent A549 cells.
10 min, facilitating the separation of bacterial cells from the supernatant. The latter was filtered through a 0.22 µm sterile filter and stored at –80 °C until further use. […]
CO2. […] The plates were then incubated for an additional 30 min at 37 °C and then, the UV absorbance was measured using a PHERAstar microplate reader. The test samples were read at a wavelength of 550 nm, while the blank was read at 620 nm. At last, the data were statistically analyzed and presented graphically using GraphPad Prism 9 (Figure S4 and S5). […]
have any negative effects. The plate was then incubated at 4 °C for 30 min and wells were washed 5 times with PBS prior to imaging via fluorescence microscopy.
Fluorescence image acquisition, processing, and quantification
Fluorescence images were captured using an inverted fluorescence microscope (Leica DMi8) equipped with a 20x objective (HC PL APO CS2 20x/0.75 IMM UV), an FITC filter cube (EX: […]

[2] = system: A549 cells; assay: Inhibition of LasB-dependent cytotoxicity of P. aeruginosa PAO1 culture supernatant on A549 cells (MTT); format: cell-based, human; settings: for A549 cell viability under PAO1 culture supernatant: 10% (v/v) PAO1 supernatant
Method: Next, we set out to analyze the ability of the dual inhibitor 12 and the individual treatment or combination of galactoside 1 and thiol 2 to reduce LasB-dependent cytotoxicity from P. aeruginosa PAO1 culture supernatant on A549 cells. None of the investigated compounds influenced A549 cell viability at 100 μM in the absence of bacterial culture supernatant (Fig. S4 ^†). […]
In vitro evaluation of 12 and a combination of 1 and 2 using P. aeruginosa culture supernatant and A549 cells in a cell viability assay
The A549 cell line, derived from human lung adenocarcinoma, was grown in Dulbecco's Modified Eagle Medium (DMEM) supplemented with 10% Fetal Bovine Serum (FBS) and 1% penicillin-streptomycin. The cells were cultured following standard protocols for cell […]
To prepare the bacterial culture supernatant, individual flasks containing 15 mL of lysogeny broth (LB) culture medium were inoculated with PAO1 or PAO1 ΔlasB strains. Culture flasks were placed on a shaker and incubated at 37 °C and 180 rpm overnight for 18 hours. Following incubation, the bacterial cultures were subjected to centrifugation at 4 °C and 5000 rpm for […]
10 min, facilitating the separation of bacterial cells from the supernatant. The latter was filtered through a 0.22 µm sterile filter and stored at –80 °C until further use.
In a flat bottom 96-well plate (Corning™ Costar™), each well was seeded with 2.5–3.5*10 3 cells in 100 µL DMEM/FCS and then incubated at a temperature of 37 °C with 5% CO2 for 24 hours. Then, compounds 12 and 1 combined with 2 in concentrations of 100 µM, 10 µM, and 1 µM were mixed with 10% (v/v) of culture supernatant of P. aeruginosa PAO1 (DSM 22644, ATCC 15692) in DMEM/FCS. To minimize the potential negative effect of DMSO, the compound was initially dissolved in 99.9% DMSO, and a final assay concentration of 0.5% DMSO was applied. Additionally, the cells were exposed to 10% (v/v) PAO1 ΔlasB culture supernatant to analyze the effect caused by LasB, while DMEM/FCS without any treatment served as a control. The plates were then incubated at 37 °C with 5% CO2 for 24 hours before conducting the MTT assay.
To assess cell viability, the medium in the well plates was aspirated and a single wash was performed using 100 µL of phosphate buffered saline, pH 7.4 (PBS). A solution of 5 mg MTT (3-(4,5-dimethylthiazol-2-yl)-2,5-diphenyl tetrazolium bromide) per mL PBS was prepared and diluted to a concentration of 10% (v/v) in DMEM/FCS. Subsequently, 100 µL of this MTT solution was added to each well, and the plates were incubated at 37 °C for 3 hours with 5%
CO2. After incubation, the MTT solution was carefully removed, and the formazan crystals were dissolved by adding 150 µL of lysis solution (250 mL DMSO, 25 g SDS, and 1.25 mL AcOH) to each well. The plates were then incubated for an additional 30 min at 37 °C and then, the UV absorbance was measured using a PHERAstar microplate reader. The test samples were read at a wavelength of 550 nm, while the blank was read at 620 nm. At last, the data were statistically analyzed and presented graphically using GraphPad Prism 9 (Figure S4 and S5).
Evaluation of compounds 1, 2 and 12 in inhibiting LecA adhesion to A549 cells via […]
The A549 cell line were cultured following the protocols for cell maintenance described above.
In a flat-bottom cell culture black 96-well plate (Greiner Bio-One, #Cat 655090) each well was seeded with 1*104 cells in 100 µL DMEM/FCS and subsequently, incubated overnight at 37 °C with 5% CO2. […]

**Q.** For CC(C)CC(S)C(=O)Nc1ccc(S[C@@H]2O[C@H](CO)[C@H](O)[C@H](O)[C@H]2O)cc1 (some centres unmarked) [Compound 12], which “inhibition of binding of LecA-FITC to A549 cells” value [1] is on record?
**A.** significantly inhibited the binding of LecA-FITC to A549 cells to the background level

**Q.** And the “A549 cell viability under PAO1 culture supernatant” value (“A549 cell viability” for short) ([2]; 1 μM compound)?
**A.** statistically significant beneficial effect on cell viability

**Q.** And the “A549 cell viability” value ([2]; 10 μM compound)?
**A.** increase in cell viability compared to the combination of the individual LasB (2) and LecA (1) inhibitors

**Q.** And the “A549 cell viability” value ([2]; 100 μM compound)?
**A.** increase in cell viability compared to the combination of the individual LasB (2) and LecA (1) inhibitors

**Q.** What about the “cytotoxicity of PAO1 culture supernatant in presence of compound” value ([2]; 100 μM compound, compared with LasB-deficient strain control) of the same compound?
**A.** reached that of the LasB-deficient strain
